The text below walks through data of PMC4919791, “Effect of curcumin analogs onα-synuclein aggregation and cytotoxicity” (Scientific Reports, 2016).

Entries after “also recorded” stand apart in the source; their conditions may differ.

Series [1] deals with T1, preformed α-Syn fibrils (Homo sapiens, UniProt P37840).
T1 construct: made in house; host or cells: Escherichia coli BL21
As to the kind of experiment: Calcein-AM/EthD-1 staining, preformed α-Syn fibrils with analogs. In kind it is cell-based. The note with it: SH-SY5Y cells. As for the experimental part:
Previously it has been shown that curcumin decreases the toxicity of α-Syn amyloid fibrils by reducing the exposed hydrophobic surfaces. To delineate whether curcumin analogs can decrease the toxicity of preformed α-Syn fibrils, we performed cell viability assay. For this, 10-days incubated α-Syn solution was centrifuged (fibril formation was confirmed by electron microscopy (EM)) and the pelleted fibrils were then re-dissolved in same volume of 20 mM MES buffer (pH 6.0, 0.01% NaN3). The concentration of the fibrils was determined by subtraction of supernatant concentration from the original concentration of α-Syn kept for fibrillation. […] After incubation, we measured the effect of curcumin analogs on the toxicity of preformed α-Syn amyloid fibrils by MTT reduction assay on SH-SY5Y cells. […]
For this assay, SH-SY5Y cells were seeded in 96 well plate and incubated with identical concentrations of oligomers/fibrils (as used in MTT assay) in absence and presence of curcumin and its analogs for 36 h in 5% CO2 incubator at 37 °C. […] Calcein-AM/Ethidium homodimer-1 signal was then checked and imaged with an inverted fluorescence microscope (Leica DMi8). […] The free calcein emits strong fluorescence signal at ~535 nm, which could be easily observed in the green channel of a microscope. […]

For series [2], the target named is T2, preformed α-Syn amyloid fibrils (Homo sapiens, UniProt P37840).
T2 construct: made in house; host or cells: Escherichia coli BL21
Description: MTT assay of preformed α-Syn fibrils incubated with curcumin analogs. The note with it: fibrils incubated with analog 48 h at 37 °C; SH-SY5Y cells. The class given is cell-based. As to the method: The concentration of the fibrils was determined by subtraction of supernatant concentration from the original concentration of α-Syn kept for fibrillation.
For orientation: Tetrazolium assays rely on reduction of a dye to a coloured formazan, in cell work by metabolically active cells.

Series [3] has as its target T3, α-Syn oligomers (Homo sapiens, UniProt P37840).
T3 construct: made in house; host or cells: Escherichia coli BL21
As to the kind of experiment: TEM of α-Syn oligomers with C1/C6. The class given is biochemical. The text has this:
(§1) It has been shown that α-Syn mutants that form oligomers preferentially are more toxic and kill dopaminergic neurons in animal models as compared to fibril forming mutants. Therefore, compounds that effectively reduce the toxicity of oligomers could be beneficial for the treatment of PD. In the present study, we tested the effect of curcumin and its analogs on the toxicity, hydrophobic exposure and morphology of α-Syn oligomers isolated using size exclusion chromatography (SEC). The toxicity of α-Syn oligomers in presence and absence of curcumin/analogs were initially tested using MTT assay. […] To further validate the effectiveness of C6 to reduce the cytotoxicity of α-Syn oligomers, we also performed LDH cytotoxicity assay and Calcein-AM/Ethidium homodimer-1 staining. […] As previously it has been proposed that curcumin reduces the oligomers toxicity by altering their exposed hydrophobic surface, we also measured the hydrophobic surface exposure of preformed α-Syn oligomers incubated with curcumin and its analogs.
5 μl of various species of α-Syn (50 μM) incubated in absence and presence of curcumin and its analogs were spotted on carbon coated formavar grid and air dried for 10 min. The samples were then washed thrice with autoclaved MQ. The samples were then stained with 10 μl of uranyl formate 1% (w/v) and incubated in dark for 10 min. […]

Series [4] concerns the target T1, preformed α-Syn fibrils. As to the kind of experiment: Nile red binding assay on preformed α-Syn fibrils. The class given is biochemical. The conditions noted are these: fibrils incubated with analog 48 h. As to the method:
Stock solution of NR was prepared in DMSO (1 mM). […] Similar experimental protocol was used for NR binding to oligomers. FluoroMax-4 spectrofluorometer (HORIBA JobinYvon) was used with excitation and emission slit widths of 5 nm. The maximum NR fluorescence obtained at ~630 nm was used for plotting bar diagrams.

The target in another series is T4, α-Syn (Homo sapiens, UniProt P37840).
T4 construct: made in house; host or cells: Escherichia coli BL21
Description: α-Syn aggregation kinetics by compound fluorescence. The class given is biochemical. The note with it: in presence of analog. As to the method: ThT fluorescence was used to monitor the aggregation kinetics of α-Syn only as a control.
Subsequently, we examined the effect of these analogs on α-Syn oligomerization by time dependent static light scattering experiment. […] After aggregation, TEM study was done to determine the effects of these analogs on the morphology of the resultant aggregates.
The α-Syn amyloid aggregation was started with LMW α-Syn of concentration ~300 μM in 1.5 ml microfuge tube in 20 mM MES buffer, pH 6.0, with 0.01% NaN3. […] The microfuge tubes with protein solutions were placed into Echo-Therm model RT11 vertical rotor (Torrey Pines Scientific, USA) with a speed of 50 rpm, at 37 °C inside an incubator.
The experiments were performed in FluoroMax-4 spectrofluorometer (HORIBA JobinYvon) with excitation and emission slit widths of 5 nm. Fluorescence was done in 20 mM MES buffer (pH 6.0, 0.01% NaN3).

Series [5] in a line: Stability of curcumin analogs by time-dependent intrinsic fluorescence. The class given is physicochemical. The conditions noted are these: 20 mM MES buffer pH 6.0, 0.01% NaN3, 37 °C. As for the experimental part: 1μl of this DMSO-stock solution was transferred to 2 ml microfuge tube and 1 ml of 20 mM MES buffer (pH 6.0, 0.01% NaN3) was added to it and mixed immediately by vortexing. These solutions were incubated at 37 °C and their respective fluorescence was taken at certain time intervals. The fluorescence was monitored by placing the 200 μl of the incubated solution in 0.1 cm path-length quartz cuvette (Hellma, Forest Hills, NY) and the spectra were acquired by using FluoroMax-4 spectrofluorometer (HORIBA JobinYvon) instrument with excitation and emission slit widths of 5 nm and 10 nm respectively. The fluorescence intensity maxima for each sample were plotted against time of incubation and fitted in exponential decay 1 in the Origin 8.0 software according to manufacture’s protocol (Fig. 2A).

Series [6] concerns the target T3, α-Syn oligomers. As to the kind of experiment: LDH cytotoxicity assay of α-Syn oligomers with C1/C6. The conditions noted are these: oligomers incubated 30 minutes with compound; SH-SY5Y cells. The class given is cell-based.
Description: as §1
10 μM of α-Syn oligomers/fibrils incubated with and without 5 μM curcumin/analogs were added to SH-SY5Y cells (10,000 cells/well) in 96 well plate. […] The percent LDH release was plotted as difference in the absorbance value of 490 nm and 690 nm, considering 100% release for the TritonX-100 treated cells.

In the case of `COc1cc(/C=C/C(=O)CC(=O)/C=C/c2ccc(OCc3ccccc3)c(OC)c2)ccc1OCc1ccccc1` [C6], the “Calcein-AM/EthD-1 staining with preformed α-Syn fibrils” value at preformed α-Syn fibrils [1] is on record as “less nuclear staining by EthD-1”. In series [2], the “cell viability, MTT, preformed α-Syn fibrils incubated with analog” value is given as 92.9% and the “effect on toxicity of preformed α-Syn fibrils, MTT” value is “reduction in toxicity”. Further, the “morphology of α-Syn oligomers (TEM)” value at α-Syn oligomers [3] is given as “significantly altered their morphology”. For the same compound, the “Nile red fluorescence of preformed α-Syn fibrils (exposed hydrophobic surface)” value on preformed α-Syn fibrils [4] is reported as “less NR fluorescence for fibrils as compared to curcumin”. Further, at α-Syn, the “effect on rate/kinetics of α-Syn aggregation” value was “fastest; also recorded: significantly accelerated α-Syn aggregation kinetics”. Also, at α-Syn (compound fluorescence, MES pH 6.0), the “lag time of α-Syn aggregation” value is 3.5 ± 0.5 h. The “relative stability compared with curcumin (slope of normalized fluorescence versus time)” value in series [5] was “relatively more stable than curcumin”. In addition, the “LDH release with α-Syn oligomers” value on α-Syn oligomers [6] is given as “reduced LDH release”.
